Measurements published in patent US11046714B2, “2,2-difluorodioxolo A2A receptor antagonists” (Merck Sharp & Dohme Corp., priority 2013, dated 2021).
pKi: −log10 of the molar value.

Biological target: human A2A receptor (Homo sapiens (Human), UniProt P29274)
Assay: competition binding assay using Scintillation Proximity technology
Conditions: membranes from CHO-K1 cells expressing the human A2a receptor; 2.0 nM tritiated compound; Cheng-Prusoff
Outline: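 Membranes (1.0 μg) from CHO-K1 cells expressing human A2A were treated with adenosine deaminase, then incubated 1 h at room temperature with compound (3000–0.15 nM) and 2.0 nM tritiated SCH-type ligand on WGA SPA beads in PBS plus 10 mM MgCl2. Nonspecific binding was defined with 1 μM CGS 15943. Ki was derived from EC50 via Cheng-Prusoff.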

Chain of human A2A receptor (P29274 whole entry): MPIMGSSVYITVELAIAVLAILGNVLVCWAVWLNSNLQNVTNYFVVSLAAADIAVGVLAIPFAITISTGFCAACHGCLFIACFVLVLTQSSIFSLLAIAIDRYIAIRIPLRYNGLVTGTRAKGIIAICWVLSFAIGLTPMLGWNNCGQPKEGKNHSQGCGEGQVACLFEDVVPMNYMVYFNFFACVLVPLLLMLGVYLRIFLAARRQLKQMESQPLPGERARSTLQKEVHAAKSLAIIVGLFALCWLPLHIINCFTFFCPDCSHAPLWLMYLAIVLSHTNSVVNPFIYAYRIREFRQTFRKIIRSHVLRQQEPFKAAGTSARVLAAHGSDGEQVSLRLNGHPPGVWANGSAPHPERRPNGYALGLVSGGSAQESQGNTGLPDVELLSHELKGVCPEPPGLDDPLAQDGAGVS

| Compound | pKi |
| --- | --- |
| Nc1nc2c3c(ccc2c2nc(CCCN4Cc5cccnc5C4)nn12)OC(F)(F)O3 [Example 137, 8-(3-(5H-pyrrolo[3,4-b]pyridin-6(7H)-yl)propyl)-2,2-difluoro-[1,3]dioxolo[4,5-h][1,2,4]triazolo[1,5-c]quinazolin-5-amine] | 8.72 |
| C[C@@H](Cc1nc2c3ccc4c(c3nc(N)n2n1)OC(F)(F)O4)N1CC(C)(F)C1 [Example 88, 2,2-difluoro-8-[(2S)-2-(3-fluoro-3-methylazetidin-1-yl)propyl][1,3] dioxolo[4,5-h][1,2,4]triazolo [1,5-c]quinazolin-5-amine] | 8.32 |
| C[C@@H](Cc1nc2c3ccc4c(c3nc(N)n2n1)OC(F)(F)O4)N1CCCC(C)(F)C1 (single isomer, unassigned) [Example 90, 2,2-difluoro-8-{(2S)-2-[(3R or 3S)-3-fluoro-3-methylpiperidin-1-yl]propyl}[1,3] dioxolo[4,5-h] [1,2,4]triazolo[1,5-c]quinazolin-5-amine] | 7.92 |
| Nc1nc2c3c(ccc2c2nc(CN4Cc5ccc(F)cc5C4)nn12)OC(F)(F)O3 [Example 120, 2,2-difluoro-8-[(5-fluoro-1,3-dihydro-2H-isoindol-2-yl)methyl][1,3] dioxolo[4,5-h][1,2,4]triazolo[1,5-c]quinazolin-5-amine] | 8.57 |
| Nc1nc2c3c(ccc2c2nc([C@H]4CC[C@H](N5CCCC(F)(F)C5)C4)nn12)OC(F)(F)O3 [Example 160, 8-[(1S,3S)-3-(3,3-difluoropiperidin-1-yl)cyclopentyl]-2,2-difluoro[1,3]dioxolo[4,5-h][1,2,4]triazolo[1,5-c]quinazolin-5-amine] | 7.80 |
| Cc1nc2c(s1)CN([C@H](C)Cc1nc3c4ccc5c(c4nc(N)n3n1)OC(F)(F)O5)CC2 [Example 80, 2,2-difluoro-8-[(2R)-2-(2-methyl-6,7-dihydro[1,3]thiazolo[5,4-c]pyridin-5(4H)-yl)propyl][1,3] dioxolo[4,5-h][1,2,4]triazolo [1,5-c]quinazolin-5-amine] | 8.59 |
| Nc1nc2c3c(ccc2c2nc(Cn4cccn4)nn12)OC(F)(F)O3 [Example 128, 8-((1H-pyrazol-1-yl)methyl)-2,2-difluoro-[1,3]dioxolo[4,5-h][1,2,4]triazolo[1,5-c]quinazolin-5-amine] | 8.60 |
| C[C@@H]1CN(c2nsnc2Cl)CCN1Cc1nc2c3ccc4c(c3nc(N)n2n1)OC(F)(F)O4 [Example 108, 8-{[(2R)-4-(4-chloro-1,2,5-thiadiazol-3-yl)-2-methylpiperazin-1-yl]methyl}-2,2-difluoro[1,3] dioxolo[4,5-h][1,2,4]triazolo[1,5-c]quinazolin-5-amine] | 8.12 |
| Cc1nc2c(o1)CN([C@H](C)Cc1nc3c4ccc5c(c4nc(N)n3n1)OC(F)(F)O5)CC2 [Example 79, 2,2-difluoro-8-[(2R)-2-(2-methyl-6,7-dihydro[1,3]oxazolo[5,4-c]pyridine-5(4H)-yl)propyl][1,3] dioxolo[4,5-h][1,2,4]triazolo[1,5-c] quinazolin-5-amine] | 8.89 |
| COC(=O)C(Cc1nc2c3ccc4c(c3nc(N)n2n1)OC(F)(F)O4)C(=O)OC [Example 148, dimethyl [(5-amino-2,2-difluoro[1,3]dioxolo[4,5-h][1,2,4]triazolo[1,5-c]quinazolin-8-yl)methyl]propanedioate] | 8.70 |
| Nc1nc2c3c(ccc2c2nc(Cc4cccnc4N4CC[C@@H](c5ccc(F)cc5)C4)nn12)OC(F)(F)O3 [Example 4, (S)-2,2-difluoro-8-((2-(3-(4-fluorophenyl)pyrrolidin-1-yl)pyridin-3-yl)methyl)-[1,3]dioxolo[4,5-h][1,2,4]triazolo[1,5-c]quinazolin-5-amine] | 8.08 |
| C[C@@H](Cc1nc2c3ccc4c(c3nc(N)n2n1)OC(F)(F)O4)N1Cc2ccncc2C1 [Example 87, (S)-8-(2-(1H-pyrrolo[3,4-c]pyridin-2(3H)-yl)propyl)-2,2-difluoro-[1,3]dioxolo[4,5-h][1,2,4]triazolo[1,5-c]quinazolin-5-amine] | 8.11 |
| CCc1nnc2n1CCN(Cc1nc3c4ccc5c(c4nc(N)n3n1)OC(F)(F)O5)C2 [Example 122, 8-[(3-ethyl-5,6-dihydro[1,2,4]triazolo [4,3-a]pyrazin-7(8H)-yl)methyl]-2,2-difluoro[1,3]dioxolo[4,5-h][1,2,4] triazolo[1,5-c]quinazolin-5-amine] | 6.96 |
| Nc1nc2c3c(ccc2c2nc(CC(C(F)F)N4Cc5cccnc5C4)nn12)OC(F)(F)O3 (single isomer, unassigned) [Example 98, (R or S)-8-(3,3-difluoro-2-(5H-pyrrolo[3,4-b]pyridin-6(7H)-yl)propyl)-2,2-difluoro-[1,3]dioxolo[4,5-h][1,2,4]triazolo[1,5-c]quinazolin-5-amine] | 8.18 |
| CC1N(CCc2nc3c4ccc5c(c4nc(N)n3n2)OC(F)(F)O5)CCCC1(F)F (single isomer, unassigned) [Example 69, (R or S)-8-[2-(3,3-difluoro-2-methylpiperidin-1-yl)ethyl]-2,2-difluoro[1,3]dioxolo[4,5-h][1,2,4] triazolo[1,5-c]quinazolin-5-amine] | 8.74 |
| CC(Cc1nc2c3ccc4c(c3nc(N)n2n1)OC(F)(F)O4)N1CCCC(F)(F)C1 (single isomer, unassigned) [Example 95, (R or S)-8-[2-(3,3-difluoropiperidin-1-yl)propyl]-2,2-difluoro[1,3] dioxolo[4,5-h][1,2,4]triazolo[1,5-c] quinazolin-5-amine] | 8.37 |

| Compound | pKi |
| --- | --- |
| CC1(C)CN(Cc2nc3c4ccc5c(c4nc(N)n3n2)OC(F)(F)O5)C1 [Example 110, 8-[(3,3-dimethylazetidin-1-yl)methyl]-2,2-difluoro[1,3]dioxolo[4,5-h][1,2,4]triazolo[1,5-c]quinazolin-5-amine] | 8.54 |
| Nc1nc2c3c(ccc2c2nc(CCN4Cc5ccc(C(F)(F)F)cc5C4)nn12)OC(F)(F)O3 [Example 7, 2,2-difluoro-8-{2-[5-(trifluoromethyl)-1,3-dihydro-2H-isoindol-2-yl]ethyl}[1,3]-dioxolo[4,5-h][1,2,4]triazolo [1,5-c]quinazolin-5-amine] | 8.51 |
| Nc1nc2c3c(ccc2c2nc(CCN4C[C@H]5CCCN[C@H]5C4)nn12)OC(F)(F)O3 [Example 51, 2,2-difluoro-8-{2-[(4aR,7aR)-octahydro-6H-pyrrolo[3,4-b]pyridin-6-yl]ethyl}[1,3]dioxolo [4,5-h][1,2,4]triazolo[1,5-c]quinazolin-5-amine] | 7.26 |
| Nc1nc2c3c(ccc2c2nc(CCNCc4ccc(C(F)(F)F)cc4)nn12)OC(F)(F)O3 [Example 59, 2,2-difluoro-8-(2-{[4-(trifluoromethyl)benzyl]amino}ethyl)[1,3]dioxolo[4,5-h][1,2,4]triazolo[1,5-c]quinazolin-5-amine] | 8.21 |
| Nc1nc2c3c(ccc2c2nc([C@@H]4CCCN(CC(F)F)C4)nn12)OC(F)(F)O3 [Example 139, (R)-8-(1-(2,2-difluoroethyl)piperidin-3-yl)-2,2-difluoro-[1,3]dioxolo[4,5-h][1,2,4]triazolo[1,5-c]quinazolin-5-amine] | 8.82 |
| Nc1nc2c3c(ccc2c2nc(CN4CCN(c5cccc(F)c5)CC45CC5)nn12)OC(F)(F)O3 [Example 104, 2,2-difluoro-8-{[7-(3-fluorophenyl)-4,7-diazaspiro[2.5]oct-4-yl]methyl} [1,3]dioxolo[4,5-h][1,2,4]triazolo [1,5-c]quinazolin-5-amine] | 8.06 |
| Cc1cc2n(n1)CCN([C@H](C)Cc1nc3c4ccc5c(c4nc(N)n3n1)OC(F)(F)O5)C2 [Example 83, 2,2-difluoro-8-[(2R)-2-(2-methyl-6,7-dihydropyrazolo[1,5-a]pyrazin-5(4H)-yl)propyl][1,3]dioxolo[4,5-h] [1,2,4]triazolo[1,5-c]quinazolin-5-amine] | 8.42 |
| Nc1nc2c3c(ccc2c2nc(C4CCCN(c5cc(F)cc(F)c5)C4)nn12)OC(F)(F)O3 (single isomer, unassigned) [Example 144, (R or S)-8-[1-(3,5-difluorophenyl)piperidin-3-yl]-2,2-difluoro[1,3] dioxolo[4,5-h][1,2,4]triazolo[1,5-c]quinazolin-5-amine] | 8.92 |
| Nc1nc2c3c(ccc2c2nc(Cc4cccnc4Cl)nn12)OC(F)(F)O3 [Example 3, 8-((2-chloropyridin-3-yl)methyl)-2,2-difluoro-[1,3]dioxolo[4,5-h][1,2,4]triazolo[1,5-c]quinazolin-5-amine] | 8.54 |
| CN1CCN(CCc2nc3c4ccc5c(c4nc(N)n3n2)OC(F)(F)O5)CC1=O [Example 47, 4-[2-(5-amino-2,2-difluoro[1,3]dioxolo[4,5-h][1,2,4]triazolo [1,5-c]quinazolin-8-yl)ethyl]-1-methylpiperazin-2-one] | 8.77 |
| C[C@H]1COCCN1CCc1nc2c3ccc4c(c3nc(N)n2n1)OC(F)(F)O4 [Example 43, 2,2-difluoro-8-{2-[(3S)-3-methylmorpholin-4-yl]ethyl}[1,3]dioxolo[4,5-h][1,2,4]triazolo[1,5-c]quinazolin-5-amine] | 8.11 |
| Cc1nc2c3ccc4c(c3nc(N)n2n1)OC(F)(F)O4 [Example 2, 2,2-difluoro-8-methyl-[1,3]dioxolo[4,5-h][1,2,4]triazolo[1,5-c]quinazolin-5-amine] | 8.21 |
| Nc1nc2c3c(ccc2c2ncnn12)OC(F)(F)O3 [Example 1, 2,2-difluoro-[1,3]dioxolo[4,5-h][1,2,4]triazolo[1,5-c]quinazolin-5-amine] | 7.92 |
| CC(c1nc2c3ccc4c(c3nc(N)n2n1)OC(F)(F)O4)N1CC(F)(F)C1 (single isomer, unassigned) [Example 132, (R or S)-8-[1-(3,3-difluoroazetidin-1-yl)ethyl]-2,2-difluoro[1,3]dioxolo [4,5-h][1,2,4]triazolo[1,5-c]quinazolin-5-amine] | 7.25 |
| CC(F)(F)CN1CC(Cc2nc3c4ccc5c(c4nc(N)n3n2)OC(F)(F)O5)C1 [Example 152, 8-{[1-(2,2-difluoropropyl)azetidin-3-yl]methyl}-2,2-difluoro[1,3] dioxolo[4,5-h][1,2,4]triazolo[1,5-c]quinazolin-5-amine] | 8.26 |
